Measurements from publication PMC9136610 (Acta Pharmaceutica Sinica. B, 2022).

Experiments:
[1] = ref Drugbank database (go.drugbank.com); cited from earlier work
in vivo = conditions: female, MMTV-PyMT (FVB/NJ background), mouse; for Kp: AUCtissue/AUCplasma
plasma protein = conditions: cited from earlier work; for Protein binding: ref Drugbank database (go.drugbank.com)
[2] = for AUC in tumor tissues, fold higher than in the normal fatpad: i.v. injection
albumin = conditions: cited from earlier work

| AUCtumor (oral 5 mg/kg, tumor) | AUC (in vivo; po, 5 mg/kg) | bioavailability (in vivo; po, 5 mg/kg) | Kp (in vivo; po, Kpbone, bone) | Kp (in vivo; po, Kpfatpad, fatpad) | Kp (in vivo; po, Kptumor, tumor) | Compound | LogP [1] | LogS [1] | Protein binding (plasma protein) | pKa [1] | also measured |
| --- | --- | --- | --- | --- | --- | --- | --- | --- | --- | --- | --- |
| 2886.5 | 114 ng·h/mL | 32.4% | 5 | 10.9 | 25.3 | CC/C(=C(\c1ccc(O)cc1)c1ccc(OCCN(C)C)cc1)c1ccccc1 [Afimoxifene, afimoxifene] | 5.44 | −5.1 | 99% | – | tissue selectivity compared to tamoxifen and toremifene, in words ([2]; i.v. 2.5 mg/kg): higher lung but lower pancreas selectivity; exposure difference in the kidney, afimoxifene vs droloxifene ([2]; i.v. 2.5 mg/kg, AUC ratio): 4.8 fold; exposure difference in the liver, afimoxifene vs droloxifene ([2]; i.v. 2.5 mg/kg, AUC ratio): 6.8 fold; AUC in tumor tissues, fold higher than in the normal fatpad [2]: 2.2 fold |
| 3238.8 | 127 ng·h/mL | 45.3% | 7.7 | 9.5 | 25.6 | CC/C(=C(/c1ccc(OCCN(C)C)cc1)c1cccc(O)c1)c1ccccc1 [Droloxifene] | 5.43 | −5.1 | – | 8.49 | tissue selectivity compared to tamoxifen and toremifene, in words ([2]; i.v. 2.5 mg/kg): higher lung but lower pancreas selectivity; AUC in tumor tissues, fold higher than in the normal fatpad [2]: 3.1 fold |
| – | – | – | – | – | – | Cc1cc(-c2ccc(/N=N/c3ccc4c(S(=O)(=O)O)cc(S(=O)(=O)O)c(N)c4c3O)c(C)c2)ccc1/N=N/c1ccc2c(S(=O)(=O)O)cc(S(=O)(=O)O)c(N)c2c1O [Evan blue] | – | – | – | – | plasma protein binding level (plasma protein): 68% |
| 996 | 75.4 ng·h/mL | – | 3.5 | 5.7 | 13.2 | Oc1ccc2c(c1)CC[C@H](c1ccccc1)[C@@H]2c1ccc(OCCN2CCCC2)cc1 [Lasofoxifene, lasofoxifene] | 6.36 | −6 | 99% | 8.98 | bioavailability (in vivo): 26.9% |
| 6118.7 | 969 ng·h/mL | – | 1.4 | 4.5 | 6.3 | COc1ccc2c(c1)CCC(c1ccccc1)=C2c1ccc(OCCN2CCCC2)cc1 [Nafoxidine, nafoxidine] | 6.36 | −5.91 | – | 8.95 | oral bioavailability, fold higher than lasofoxifene (vs lasofoxifene): 3 fold; bioavailability (in vivo): 83.4%; tissue selectivity compared to lasofoxifene, in words ([2]; after i.v and p.o. administration): higher selectivity in stomach, liver, fat, fatpad, spleen, kidney, but lower selectivity in heart, tumor and pancreas; exposure in the fat, fold higher than lasofoxifene ([2]; i.v. 2.5 mg/kg): 8 fold; exposure in the spleen, fold higher than lasofoxifene ([2]; i.v. 2.5 mg/kg): 6 fold |
| 929.4 | 114 ng·h/mL | – | – | – | – | O=C(c1ccc(OCCN2CCCCC2)cc1)c1c(-c2ccc(O)cc2)sc2cc(O)ccc12 [Raloxifene, raloxifene] | – | – | – | – | – |
| 3621.3 | 102 ng·h/mL | 39.4% | – | – | – | CC/C(=C(\c1ccccc1)c1ccc(OCCN(C)C)cc1)c1ccccc1 [Tamoxifen] | – | – | 98% | – | exposure difference in the fat, intestine and skin, tamoxifen vs toremifene ([2]; i.v. 2.5 mg/kg, AUC ratio): 2 fold |
| 1393 | 64.9 ng·h/mL | 18.5% | 5.1 | 20.9 | 21.5 | CN(C)CCOc1ccc(/C(=C(/CCCl)c2ccccc2)c2ccccc2)cc1 [Toremifene, toremifene] | 5.65 | −6 | 92% | 8.76 | tumor drug concentration, fold higher than raloxifene (oral 5 mg/kg, tumor, vs raloxifene): 1.5 fold; drug exposure in the lung, fold increase to tamoxifen (20 mg QD) (toremifene 60 mg QD (3-fold AUC) vs tamoxifen 20 mg QD): 2 fold |
| – | – | – | – | – | – | COc1cccc2c1C(=O)c1c(O)c3c(c(O)c1C2=O)C[C@@](O)(C(=O)CO)C[C@@H]3O[C@H]1C[C@H](N)[C@H](O)[C@H](C)O1 [doxorubicin] | – | – | – | – | binding affinity to albumin (albumin): 7500 mol/L |
